Numbers after ± are expanded uncertainties.
Experiments:
[1] = Liquid
[2] = xn = mol fraction of the nth substance listed; conditions: 101 kPa, Liquid, x1 = 1

Row | Compound | mass density ([1]; 298.15 K, 101.33 kPa) [kg/m3] | mass density ([1]; 288.15 K, 101 kPa) [kg/m3] | mass density ([1]; 293.15 K, 101 kPa) [kg/m3] | mass density ([1]; 298.15 K, 101 kPa) [kg/m3] | mass density ([1]; 303.15 K, 101 kPa) [kg/m3] | mass density ([1]; 308.15 K, 101 kPa) [kg/m3] | mass density ([1]; 313.15 K, 101 kPa) [kg/m3] | mass density ([2]; 288.15 K) [kg/m3] | mass density ([2]; 293.15 K) [kg/m3] | mass density ([2]; 298.15 K) [kg/m3] | mass density ([2]; 303.15 K) [kg/m3] | mass density ([2]; 308.15 K) [kg/m3] | mass density ([2]; 313.15 K) [kg/m3]
1 | c1ccccc1 [benzene] | 873.582 ± 0.16 |  |  |  |  |  |  |  |  |  |  |  | 
2 | CO [methanol] |  | 796.093 ± 0.23 | 791.4 ± 0.23 | 786.694 ± 0.23 | 781.966 ± 0.24 | 777.213 ± 0.24 | 772.443 ± 0.24 |  |  |  |  |  | 
3 | CO [methanol] + ClC(Cl)Cl |  |  |  |  |  |  |  | 796.093 ± 0.23 | 791.4 ± 0.23 | 786.694 ± 0.23 | 781.966 ± 0.24 | 777.213 ± 0.24 | 772.443 ± 0.24
4 | ClC(Cl)Cl [trichloromethane] |  | 1498.08 ± 0.47 | 1488.64 ± 0.46 | 1479.15 ± 0.45 | 1469.61 ± 0.45 | 1460.03 ± 0.44 | 1450.41 ± 0.43 |  |  |  |  |  | 

Reference: the NIST ThermoML archive (doi:10.1021/je060441j)
